Patent publication US7863239B2, “Binding compounds, immunogenic compounds and peptidomimetics” (Pepscan Systems B.V., priority 2005, dated 2011)
“Also recorded” adds a separate entry of the source. *1 amine or outer side, *2 acyl side, *3 side chain or, on linkers, in order; H or OH if unused. Bridges are numbered along the chain shown (N, C = ends). Where no end group is shown, it is not given here. T4 = 1,2,4,5-tetrabromodurene scaffold; mXylylene = c1cc(C[*:1])cc(C[*:2])c1

Legend:
FSH = test: Vaccination of rats with FSH-derived peptides, antisera analyzed in FSH-binding ELISA; conditions: rat, in vivo
Protocol: Peptides were synthesized by solid-phase peptide synthesis using a 4-(2′,4′-dimethoxyphenyl-Fmoc-aminomethyl)-phenoxy (RinkAmide) resin (BACHEM, Germany) on a Syro-synthesizer (MultiSynTech, Germany). All amino acids were purchased and used as N-alpha-(Fmoc) protected with side-chain functionalities protected as N-t-Boc (KW), O-t-Bu (DESTY), N-Trt (HNQ), S-Trt (C), or N-Pbf (R) groups. A coupling protocol using a 6.5-fold excess of HBTU/HOBt/amino acid/DIPEA (1:1:1:2) in NMP with a 30 min. activation time using double couplings was employed. […] Subsequently, female Wistar rats were immunized on day 0 with 400 uL of a ˜2.5 mg/mL of the peptide or peptide-T-construct in PBS/CFA 1:1 (v/v) (PBS=Phosphate-Buffered Saline, CFA=Complete Freund's Adjuvance), followed by a booster (same quantity and concentration) at 4 weeks. Subsequently, the anti-peptide titers were determined after 6 weeks to check for immune response and finally the rats were bleeded after 8 weeks and the antisera collected. Antisera were analyzed in an FSH-binding ELISA (Greiner, PS; GDA-coating with 1 μg/mL of FSH (Biotrend)) using 2,2′-azine-di(ethylbenzthiazoline sulfonate) (ABTS) in combination with a peroxidase-labeled Goat-anti-rat serum as second antibody. […]

anti-CCR5 antibody 2D7 = test: Screening of peptide microarrays with anti-CCR5 antibody 2D7; type: binding; conditions: absorbance at 405 nm measured using a CCD-camera; for 2D7 (0.1 μg/ml): mAb 2D7 at 0.1 μg/ml on peptide microarray; for 2D7 (1 μg/ml): mAb 2D7 at 1 μg/ml on peptide microarray; for 2D7 (10 μg/ml): mAb 2D7 at 10 μg/ml on peptide microarray
Protocol: Grafting of the polypropylene support with polyacrylic acid was performed by irradiating the support in a 6% acrylic acid solution containing CUS04 using gamma radiation at a dose of 12 kGy. The grafted solid support containing carboxylic acid groups was subsequently reacted with t-butyloxycarbonyl-hexamethylenediamine (Boc-HMDA) using dicyclohexylcarbodiimide (DCC) with N-hydroxybenzotriazole (HOBt) and subsequent cleavage of the Boc-groups using trifluoroacetic acid (TFA). The peptides were synthesized using standard Fmoc-chemistry and, after acylation, deprotected by reaction with TFA (15 ml/g resin) containing 13.3% (w) phenol, 5% (v) thioanisole, 2.5% (v) 1,2-ethanedithiol, and 5% (v) milliQ-H2O for 2-4 hrs at RT. After washing 3× with H2O, the peptide microarrays were treated with excess of a 1.0 mM solution of either mP2 or T3 in 20 mM amm. bicarbonate (pH 7.8)/acetonitril (1:1 v/v) for 30-60 min. at room temperature, followed by 3× washing with 50% ACN/H2O. Then, the microarrays were washed with excess of millipore H2O and sonicated in disrupt-buffer (1% SDS/0.1% β-mercaptoethanol (BME) in phosphate buffered saline (PBS), pH 7.2) at 70° C. for 30 min. followed by sonication in millipore H2O for another 45 min. Synthese Van Scaffolds: The scaffolds are commercially available by Aldrich. Screening of Micro-Arrays with Antibodies Microarrays were pretreated with PBS for 30 min. followed by precoating with incubation buffer (PBS containing 5% ovalbumin, 5% horse serum and 1% Tween-80) for 1 hour. Then, the microarrays were incubated with mAb (typically 1/1000, diluted in incubation buffer) overnight at 4° C. After washing (3×10 min.) with PBS/Tween-80 (0.05%), the peptides were incubated with peroxidase labeled rabbit anti-mouse antibody for 1 hr at 25° C. (rampo, 1/1000; Dako, Glostrup, Denmark) and subsequently, after washing again (3×10 min.) with PBS/Tween-80 (0.05%), incubated with the peroxidase substrate 2,2′-azino-di-3-ethylbenzthiazoline sulfonate (ABTS; 50 mg in 100 ml 0.1M citric acid-sodium phosphate (McIlvaine) buffer (pH 4.0) containing 20 ul 30% H2O2). After 1 h the absorbance (at 405 nm) was measured using a CCD-camera (XC-77RR, Sony, Japan). Bound mAb was removed by sonication in disrupt-buffer as described above. The micro-arrays were re-used for screening approximately 10-15 times. CCR5 CCR5 is a […] co-receptor that is used by HIV for cellular entry. Antibodies specifically directed against CCR5 would therefore be suitable for counteracting cellular entry by HIV. However, immunization with whole CCR5 is problematic since CCR5 is a transmembrane protein. In order to be capable of eliciting CCR5-specific antibodies, immunogenic compounds based on CCR5 are therefore desired. In order to design suitable test compounds, 4 CCR5 sequences were taken into account: one N-terminus domain (Nt) and three extracellular loop domains extended with about 1-6 adjacent amino acid residues of the transmembrane domains (N-terminally as well as C-terminally). These extracellular loop domains are called e1, e2 and e3. The primary sequences of the considered domains are as follows (starting N-terminally):
In the first series of peptides (first row of the above Table), the C-terminal amino acids K, I, N, V, K, Q, I, and A of the Nt sequence were selected. Subsequently, N-terminal flanking sequences with a length of 21 amino acid residues were selected. […] Subsequently, peptides were produced containing one of these flanking sequences. Likewise, in the second series of peptides (second row of the above Table), the C-terminal amino acids P, C, Q, K, I, N, V and K of the Nt sequence were selected. Subsequently, N-terminal flanking sequences with a length of 18 amino acid residues were selected. […] Subsequently, peptides were produced containing one of these flanking sequences. […]

Substance	immune response against native FSH in rats (in words) (FSH)	immune response against native FSH in rats (in words) (FSH; listed as TFKELVYETCRVPGAAHHADSLCTYPVATQAH cyclized onto m-T2)	2D7 (0.1 μg/ml) (anti-CCR5 antibody 2D7)	2D7 (1 μg/ml) (anti-CCR5 antibody 2D7)	2D7 (10 μg/ml) (anti-CCR5 antibody 2D7)
*KIQKTATFKELVYETCRVPGAAHHADSLCTYPVATQAHAGK# (SEQ ID NO: 120) T4 (KIQKTATFKELVYETCRVPGAAHHADSLCTYPVATQAHAGK-NH2; linker 16-29 via T4 (inferred)) [No. 9 (Table 4B), FSH-derived CLIPS peptide]	Good results	–	–	–	–
*TFKELVYETCRVPGAAHHADSLCTYPVATQAH# (SEQ ID NO: 119) + m-T2 (TFKELVYETCRVPGAAHHADSLCTYPVATQAH-NH2; linker 10-23 via mXylylene (inferred)) [No. 4 (Table 4B), FSH-derived CLIPS peptide]	–	production of antibodies that are reactive with native FSH; also recorded: very high antibody titre	–	–	–
CAQWDFGNCQKEGLHYTC (SEQ ID NO: 109) (not fully specified; bound to P2 or T3 scaffold) [compound 1158]	–	–	132	416	2377
CFGNTMGGGRSQKEGLHYTC (SEQ ID NO: 108) (not fully specified; bound to P2 or T3 scaffold) [compound 719]	–	–	113	678	2819
CNTMGGGRSQKEGLHYTC (SEQ ID NO: 106) (not fully specified; bound to P2 or T3 scaffold) [compound 702]	–	–	68	1580	2787
CQKEGLHYC (SEQ ID NO: 102) (not fully specified; bound to P2 or T3 scaffold) [compound 443]	–	–	148	2636	3090
CQKEGLHYTC (SEQ ID NO: 101) (not fully specified; bound to P2 or T3 scaffold) [compound 447]	–	–	261	2706	2943
CQWDFGNTCQKEGLHYTC (SEQ ID NO: 107) (not fully specified; bound to P2 or T3 scaffold) [compound 1159]	–	–	213	1153	2636
CRSQKEGLHYTC (SEQ ID NO: 105) [compound 450]	–	–	107	2364	2852
CSQKEGLHYTC (SEQ ID NO: 103) (not fully specified; bound to P2 or T3 scaffold) [compound 449]	–	–	99	2606	2889
CWDFGNTMCQKEGLHYTC (SEQ ID NO: 104) (not fully specified; bound to P2 or T3 scaffold) [compound 1160]	–	–	315	2469	2765
